From ChEMBL document CHEMBL1201862, “PubChem BioAssay data set” (2004)
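Cultured in 96-well plates, cells were exposed to test compound for 48 hours across five concentrations. GI50 = concentration required for 50% inhibition of growth.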 The source made the active and inactive calls. No stated cut-off is given here; in the data, active = GI50 up to about 1.1 µM and inactive = higher.

Legend:
Experiment in all cases: DTP human tumour cell line panel, 48 h
[1] = system: A549
[2] = system: ACHN
[3] = system: CCRF-CEM
[4] = system: COLO 205
[5] = system: HOP-62
[6] = system: HOP-92
[7] = system: K562
[8] = system: MDA-MB-231
[9] = system: NCI-H23
[10] = system: OVCAR-3
[11] = system: OVCAR-4
[12] = system: RXF 393
[13] = system: SF-268
[14] = system: SF-539
[15] = system: SK-MEL-28
[16] = system: SR
[17] = system: T47D
[18] = system: UO-31
[19] = system: HL-60

Measured: GI50

COc1cc2c(cc1OC)C(N)CC2=O (centres undefined)
inactive: [1] > 100 µM | [2] > 100 µM | [3] > 100 µM | [4] > 100 µM | [5] > 100 µM | [6] > 100 µM | [7] > 100 µM | [8] > 100 µM | [9] > 100 µM | [10] > 100 µM | [11] > 100 µM | [12] > 100 µM | [13] > 100 µM | [14] > 100 µM | [15] > 100 µM | [16] > 100 µM | [17] > 100 µM | [18] > 100 µM

Cc1n[nH]c(=O)c2c3c([nH]c12)-c1ccccc1C3
inactive: [1] > 100 µM | [2] > 100 µM | [3] > 100 µM | [4] > 100 µM | [5] > 100 µM | [6] > 100 µM | [7] > 100 µM | [8] 66.4 µM | [9] > 100 µM | [10] > 100 µM | [11] > 100 µM | [12] 77.3 µM | [13] > 100 µM | [14] > 100 µM | [15] > 100 µM | [16] 82.8 µM | [17] 23.5 µM | [18] > 100 µM

CCCC(=O)OC1=C(c2ccccc2)Sc2ccccc2-n2cccc21
inactive: [1] > 10 µM | [3] > 10 µM | [4] > 10 µM | [19] > 10 µM | [5] > 10 µM | [6] > 10 µM | [7] > 10 µM | [8] > 10 µM | [9] > 10 µM | [11] > 10 µM | [12] > 10 µM | [13] > 10 µM | [15] > 10 µM | [16] > 10 µM | [17] > 10 µM

Cc1nc2ccccc2c(=O)n1-c1n[nH]c2ccccc12
inactive: [1] > 100 µM | [2] > 100 µM | [3] > 100 µM | [4] > 100 µM | [5] > 100 µM | [6] > 100 µM | [7] > 100 µM | [8] > 100 µM | [9] > 100 µM | [10] > 100 µM | [11] > 100 µM | [12] > 100 µM | [13] > 100 µM | [14] > 100 µM | [15] > 100 µM | [16] > 100 µM | [17] > 100 µM | [18] > 100 µM

N#CCc1nc(-c2cc3ccccc3oc2=O)cs1
inactive: [1] > 100 µM | [2] 42.5 µM | [3] 30.5 µM | [4] 67.3 µM | [19] 17.5 µM | [5] 62.7 µM | [6] 41.7 µM | [7] 45.8 µM | [8] 79.3 µM | [11] 44.1 µM | [12] > 100 µM | [13] > 100 µM | [14] 83.9 µM | [15] 37.3 µM | [16] 43.6 µM | [17] 40.1 µM | [18] 40.4 µM

O=c1c(Cc2ccccc2)c(-c2ccccc2)[nH]n1C1=NCCN1
inactive: [1] 40.5 µM | [2] 29.3 µM | [3] 16.7 µM | [4] 35.2 µM | [19] 15.1 µM | [5] 56 µM | [6] 44.7 µM | [7] 53.5 µM | [8] > 100 µM | [9] 62.5 µM | [10] 24.4 µM | [11] 54.2 µM | [12] 92.9 µM | [13] 28.4 µM | [14] 58.1 µM | [16] 22.8 µM | [17] 45.3 µM | [18] 42.6 µM
